Test results reported in US20250369124A1, “IMIDAZOLINE-SUGAR CONJUGATE COMPOSITIONS AND METHODS FOR INHIBITING CORROSION” (Ecolab USA Inc., priority 2024, published 2025).
Values joined by “and” are separate entries in the source; they are usually repeats but may differ in a detail not shown here. Equal entries are not always repeated. “Also recorded” adds a separate entry of the source.

How the values were obtained:
[1] = Wheel box test (NACE publication ID182), corrosion of carbon steel coupons in CO2-saturated brine/oil; conditions: for corrosion inhibitor performance (in words): wheel box test
Excerpt: To determine the efficacy of the compositions as corrosion inhibitors, a wheel box test was used. It is a testing methodology from NACE publication ID182. The method is used to assess the degree of protection afforded to a metal surface that is in contact with water laden with carbon dioxide (C02). The wheel box test is a test that is often used in the field for comparative corrosion inhibitor performance tests. The standard test conditions used in the performance test are in Table 1.
A continuous wheel box test procedure was used to compare the performance of the corrosion inhibitor formulations of the invention in mitigating the corrosion of carbon steel in solutions saturated with carbon dioxide. Into a set of bottles containing the desired brine and oil mixtures, Table 1, clean and pre-weighed coupons were immersed. The solution was purged with carbon dioxide, after which the solutions were dosed with the various concentrations of the formulations. After purging the headspace with carbon dioxide, the bottles were immediately capped to prevent aerial exposure.
Blanks, comprising bottles of untreated mixtures, were used to determine the baseline corrosion rate under the test conditions. The bottles were placed on a rotating wheel under incubation at 80° C. for a period of 24 hours. Following the completion of the incubation, the bottles were retrieved and left to cooled to room temperature. The coupons were removed from the test solutions, cleaned, dried, sandblasted and re-weighed. By comparing the mass loss of the coupons immersed in treated solutions versus the mass loss for coupons placed in untreated solutions, the corrosion rate and protection efficiency were calculated.

[2] = Physical stability / water solubility of the inhibitor formulation (observation); format: physicochemical; conditions: for physical stability of the formulation: 418.4 mM solution in water
[3] = 5 ppm of Corrosion Inhibitor, low dosage comparison, method of Example 4
[4] = 10 ppm of Corrosion Inhibitor, low dosage comparison, method of Example 4
[5] = 25 ppm of Corrosion Inhibitor, low dosage comparison, method of Example 4
[6] = 50 ppm of Corrosion Inhibitor, low dosage comparison, method of Example 4
[7] = 5000 ppm inhibitor, 80° C., 24 hours, CO2 saturated, 80% ASTM Seawater brine / 20% LVT-200
[8] = 20000 ppm inhibitor, 80° C., 24 hours, CO2 saturated, 80% ASTM Seawater brine / 20% LVT-200
[9] = 50000 ppm inhibitor, 80° C., 24 hours, CO2 saturated, 80% ASTM Seawater brine / 20% LVT-200

CCCCCCCC/C=C\CCCCCCCC1=NCCN1CCN [Comparative Formulation, Acetate, reference compound]
% Protection [1, 3]: 14% | % Protection [1, 4]: 24% | % Protection [1, 5]: 42% | % Protection [1, 6]: 55% | % Protection ([1]; 500 ppm inhibitor, 80° C., 24 hours, CO2 saturated, 80% ASTM Seawater brine / 20% LVT-200, Acetate): 88% and 89% | % Protection ([1]; 1000 ppm inhibitor, 80° C., 24 hours, CO2 saturated, 80% ASTM Seawater brine / 20% LVT-200, Acetate): 89% and 90% | % Protection ([1]; 2000 ppm inhibitor, 80° C., 24 hours, CO2 saturated, 80% ASTM Seawater brine / 20% LVT-200, Acetate): 90% and 89% | % Protection [1, 7]: 89% | % Protection ([1]; 10000 ppm inhibitor, 80° C., 24 hours, CO2 saturated, 80% ASTM Seawater brine / 20% LVT-200, Acetate): 89% and 90% | % Protection [1, 8]: 89% | % Protection [1, 9]: 90% | average protection efficiency ([1]; average of Table 3 (500-50000 ppm)): 89% | corrosion inhibitor performance (in words) [1]: robust even at low treatment doses | physical stability of the formulation [2]: physically unstable

CC(=O)[O-].CCCCCCCC/C=C\CCCCCCCC1=[N+](CC(O)c2ccccc2)CCN1CCNC1OC(CO)C(O)C(O)C1O (stereo not shown) [Formula 2, (Z)-2-(heptadec-8-en-1-yl)-3-(2-hydroxy-2-phenylethyl)-1-(2-((3,4,5-trihydroxy-6-(hydroxymethyl)tetrahydro-2H-pyran-2-yl)amino)ethyl)-4,5-dihydro-1H-imidazol-3-ium acetate salt]
% Protection [1, 3]: 28% | % Protection [1, 4]: 36% | % Protection [1, 5]: 57% | % Protection [1, 6]: 73% | % Protection ([1]; 500 ppm inhibitor, 80° C., 24 hours, CO2 saturated, 80% ASTM Seawater brine / 20% LVT-200, listed as Formulation 2, acetate salt): 91% and 92% | % Protection ([1]; 1000 ppm inhibitor, 80° C., 24 hours, CO2 saturated, 80% ASTM Seawater brine / 20% LVT-200): 92% | % Protection ([1]; 2000 ppm inhibitor, 80° C., 24 hours, CO2 saturated, 80% ASTM Seawater brine / 20% LVT-200, listed as Formulation 2, acetate salt): 91% and 92% | % Protection ([1]; 5000 ppm inhibitor, 80° C., 24 hours, CO2 saturated, 80% ASTM Seawater brine / 20% LVT-200, listed as Formulation 2, acetate salt): 92% and 93% | % Protection ([1]; 10000 ppm inhibitor, 80° C., 24 hours, CO2 saturated, 80% ASTM Seawater brine / 20% LVT-200, listed as Formulation 2, acetate salt): 93% and 94% | % Protection [1, 8]: 94% | % Protection [1, 9]: 94% | corrosion inhibitor performance (in words) ([1]; acetate salt): greatly improved corrosion inhibitor performance even at low dosages; also recorded: highly effective; also recorded: perform significantly better than the comparative sample even at low dosage rates | solubility in water [2]: high solubility in water | physical stability of the formulation [2]: physically stable

CC(=O)O.CCCCCCCC/C=C\CCCCCCCC1=NCCN1CCNC1OC(CO)C(O)C(O)C1O (stereo not shown) [Formula 1, (Z)-2-((2-(2-(heptadec-8-en-1-yl)-4,5-dihydro-1H-imidazol-1-yl)ethyl)amino)-6-(hydroxymethyl)tetrahydro-2H-pyran-3,4,5-triol acetate salt]
% Protection [1, 3]: 22% | % Protection [1, 4]: 32% | % Protection [1, 5]: 54% | % Protection [1, 6]: 63% | % Protection ([1]; 500 ppm inhibitor, 80° C., 24 hours, CO2 saturated, 80% ASTM Seawater brine / 20% LVT-200): 95% | % Protection ([1]; 1000 ppm inhibitor, 80° C., 24 hours, CO2 saturated, 80% ASTM Seawater brine / 20% LVT-200, listed as Formulation 1, acetate salt): 93% and 94% | % Protection ([1]; 2000 ppm inhibitor, 80° C., 24 hours, CO2 saturated, 80% ASTM Seawater brine / 20% LVT-200, listed as Formulation 1, acetate salt): 93% and 94% | % Protection [1, 7]: 94% | % Protection ([1]; 10000 ppm inhibitor, 80° C., 24 hours, CO2 saturated, 80% ASTM Seawater brine / 20% LVT-200, listed as Formulation 1, acetate salt): 95% and 94% | % Protection ([1]; 20000 ppm inhibitor, 80° C., 24 hours, CO2 saturated, 80% ASTM Seawater brine / 20% LVT-200, listed as Formulation 1, acetate salt): 96% and 95% | % Protection ([1]; 50000 ppm inhibitor, 80° C., 24 hours, CO2 saturated, 80% ASTM Seawater brine / 20% LVT-200, listed as Formulation 1, acetate salt): 95% and 94% | corrosion inhibitor performance (in words) [1]: perform significantly better than the comparative sample even at low dosage rates
